Numbered stars: 1 amine (or outer) side, 2 acyl side, 3 side chain; on linkers, the order of the positions; unused ones are H or OH. Square brackets hold non-standard residues; d marks the D form. Side chains are listed from the residue outwards. Peptide text beside a SMILES is read from it. * marks the point of attachment. NH(4-amidinophenyl) = N=C(N)c1ccc(N*)cc1; dPhe(4-Cl) = N[C@H](Cc1ccc(Cl)cc1)C(=O)O; d2Nal = N[C@H](Cc1ccc2ccccc2c1)C(=O)O; Lys(iPr) = CC(C)NCCCC[C@H](N)C(=O)O; NMeY = CN[C@@H](Cc1ccc(O)cc1)C(=O)O; dCit = NC(=O)NCCC[C@@H](N)C(=O)O; d3Pal = N[C@H](Cc1cccnc1)C(=O)O; Suc = O=C(CCC(=O)[*:2])[*:1]
Legend:
human LHRH receptor [1] = target: T1, human LHRH receptor (Homo sapiens, UniProt P30968); experiment: functional assay for antagonistic activity, fos-Luc luciferase reporter gene, stimulation with 1 nM [D-Trp6] LHRH; format: cell-based; design: expressed in transfected cells; details: cells stimulated with 1 nM [D-Trp6] LHRH for 6 h; bracket = number of independent experiments
T1 sequence (P30968 1-328): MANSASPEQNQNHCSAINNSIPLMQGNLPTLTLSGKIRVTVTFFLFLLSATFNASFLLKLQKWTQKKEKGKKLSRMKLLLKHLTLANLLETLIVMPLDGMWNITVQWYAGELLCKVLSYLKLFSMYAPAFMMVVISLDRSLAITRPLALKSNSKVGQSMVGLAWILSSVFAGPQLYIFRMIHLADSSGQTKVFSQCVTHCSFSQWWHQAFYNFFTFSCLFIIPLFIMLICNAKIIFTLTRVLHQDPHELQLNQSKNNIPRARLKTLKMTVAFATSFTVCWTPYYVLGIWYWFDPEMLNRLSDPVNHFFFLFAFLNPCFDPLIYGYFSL
Method: The assay for the functional characterization of antagonistic analogs of LH-RH was carried out, with some modifications, as described in Beckers et al., “Characterization of gonadotropin-releasing hormone analogs based on a sensitive cellular luciferase reporter gene assay” (1997) Analyt. Biochem. 251, 17-23. The assay uses a reporter gene made by fusing the c-fos immediate-early gene promoter to a DNA sequence encoding luciferase (Luc). A recombinant cell line that expresses the human LH-RH. receptor is stably transfected with the fos-Luc reporter gene. Transcription of the fos-Luc fusion gene and synthesis of the Luc protein is induced in the cells in a dose-dependent manner by LH-RH and other LH-RH agonists that bind and signal through the human LH-RH receptor. Peptide LH-RH antagonists such as the compounds of the invention bind to cellular LH-RH receptors and inhibit this stimulation. The antagonistic potency (IC50) of peptide LH-RH antagonists as determined by the assay generally correlates well with the binding affinity (KD) of the LH-RH antagonists for LH-RH receptor as determined from ligand binding experiments.
Cells containing the fos-Luc reporter gene that express the human LH-RH receptor were cultured for 24 h in microtitre plates using DMEM with additives and 1% (v:v) FCS (10,000 cells per well). The cells were then stimulated with 1 nM [D-Trp^6] LHRH for 6 h. Peptide LH-RH antagonist compounds according to the invention were added before the stimulation, and the cells were lysed at the end for quantification of the cellular Luc activity. The calculation of the IC50 values from dose-effect curves was carried out by non-linear regression analysis using the Hill model (Programme EDX 2.0 from C. Grunwald, Arzneimittelwerk Dresden).
The quantification of the Luc activity was carried out in duplicate essentially as described (Promega Technical Bulletins #101/161) using the respective luciferase assay system (Promega E4030). Owing to addition of coenzyme A (CoA), an oxidation of luciferyl-CoA takes place with advantageous kinetics. After the removal of the culture medium from the microtitre plate, the cells were lysed by addition of 100 μl of lysis buffer (25 mM tris-phosphate pH 7.8, 2 mM dithiothreitol, 2 mM 1,2-diaminocyclohexane-N,N,N′,N′-tetraacetic acid (CDTA), 10% (v:v) glycerol, 1% (v:v) Triton X-100). After incubation at room temperature for 15 min, 10 μl of cell lysate were transferred into a white microtitre plate suitable for luminometric detection (Dynatech). The enzymatic reaction was initiated by addition of 50 μl of assay buffer (20 mM tricine pH 7.8, 1.07 mM (MgCO3)4Mg(OH)2, 2.67 mM MgSO4, 0.1 mM ethylene-diaminetetraacetic acid (EDTA), 33.3 mM dithiothreitol, 270 μM coenzyme A, 470 μM glow-worm (Photinus pyralis) luciferin, 530 μM rATPNa2). After one minute, the luminescence was determined for a total time of one second with a signal half-life of five minutes using the EG&G Berthold MicroLumat LB 96 P.

human LHRH receptor [2] = target: T1, human LHRH receptor; experiment: receptor binding assay, displacement of [125I]-cetrorelix on intact cells; design: expressed in transfected cells; host or cells: LTK cells (stably transfected), intact cells; details: LTK cells expressing human LHRH receptor, 1 h at 37° C.; bracket = number of independent experiments; read-out: KD (binding affinity)
Excerpt: The compounds according to formula I of the invention were investigated for their receptor binding. The assay method closely followed the process described in Beckers et al., “Selection and characterization of mammalian cell lines with stable overexpression of human pituitary receptors for gonadoliberin (GnRH)” (1995) Eur. J. Biochem., 231, 535-543. Cetrorelix obtained according to the synthesis disclosed above was iodinated with [^125I] (Amersham; specific activity 80.5 Bq/fmol) using the IodoGen reagent (Pierce). The reaction mixture was purified by reverse-phase high-performance liquid chromatography with exchanged phases, monoiodinated cetrorelix being obtained without unlabelled peptide. In each case, about 80% of the [^125I]-cetrorelix was capable of specific receptor association.
The receptor binding assay was carried out under physiological conditions as described (Beckers et al., 1995) using intact cells. Subconfluent cultures of stably transfected LTK cells, which express the human LHRH receptor, were separated off by incubation in NaCl/Pi (137 mM NaCl, 2.7 mM KCl, 8.1 mM Na2HPO4, […])/1 mM EDTA and collected by centrifugation. The cell pellet was resuspended in binding buffer (DMEM without H2CO3, with 4.5 g/l of glucose, 10 mM Hepes pH 7.5, 0.5% (mass/volume) BSA, 1 g/l bacitracin, 0.1 g/l SBTI, 0.1% (mass/volume) NaN3). For displacement assays, 0.25×10^6 cells/100 μl were incubated with approximately 225 pM of the [^125I]-cetrorelix (specific activity 5-10×10^5 dpm/pmol) and various concentrations of unlabelled compound according to the invention as competitor. The cell suspension in 100 μl of binding medium was layered in 400 μl assay tubes over 200 μl of 84% by volume silicone oil (Merck Type 550)/16% by volume paraffin oil. […] Cell pellet and supernatants were then analysed by counting the y radiation. The amount of non-specifically bound material was determined at a final concentration of 1 μM with inclusion of unlabelled cetrorelix and was typically ≦10% of the total bound material. […]

Row | IC50 (human LHRH receptor [1]) [nM] | Kd (human LHRH receptor [2]) [nM] | Structure (SMILES)
1 | 0.684 | 0.181 | CC(=O)N[C@H](Cc1ccc2ccccc2c1)C(=O)N[C@H](Cc1ccc(Cl)cc1)C(=O)N[C@H](Cc1cccnc1)C(=O)N[C@@H](CO)C(=O)N(C)[C@@H](Cc1ccc(O)cc1)C(=O)N[C@H](CCCCNC(=O)CCC(=O)Nc1ccc(C(=N)N)cc1)C(=O)N[C@@H](CC(C)C)C(=O)N[C@@H](CCCCNC(C)C)C(=O)N1CCC[C@H]1C(=O)N[C@H](C)C(N)=O [Example 2, Ac-D-Nal(2)^1-D-Cpa^2-D-Pal(3)^3-Ser^4-N-Me-Tyr^5-D-Lys(B)^6-Leu^7-Lys(iPr)^8-Pro^9-D-Ala^10-NH2] (Ac-[d2Nal][dPhe(4-Cl)][d3Pal]S[NMeY][dK]([Suc-NH(4-amidinophenyl)])L[Lys(iPr)]P[dA]-NH2)
2 | 0.492 | 0.154 | CC(=O)N[C@H](Cc1ccc2ccccc2c1)C(=O)N[C@H](Cc1ccc(Cl)cc1)C(=O)N[C@H](Cc1cccnc1)C(=O)N[C@@H](CO)C(=O)N(C)[C@@H](Cc1ccc(O)cc1)C(=O)N[C@H](CCCCNC(=O)CCC(=O)Nc1ccc(C(=N)N)cc1)C(=O)N[C@@H](CC(C)C)C(=O)N[C@@H](CCCNC(=N)N)C(=O)N1CCC[C@H]1C(=O)N[C@H](C)C(N)=O [Example 3, Ac-D-Nal(2)^1-D-Cpa^2-D-Pal(3)^3-ser^4-N-Me-Tyr^5-D-Lys(B)^6-Leu^7-Arg^8-Pro^9-D-Ala^10-NH2] (Ac-[d2Nal][dPhe(4-Cl)][d3Pal]S[NMeY][dK]([Suc-NH(4-amidinophenyl)])LRP[dA]-NH2)

Row | Structure (SMILES) | IC50 (human LHRH receptor [1]) [nM] | Kd (human LHRH receptor [2]) [nM]
3 | CC(=O)N[C@H](Cc1ccc2ccccc2c1)C(=O)N[C@H](Cc1ccc(Cl)cc1)C(=O)N[C@H](Cc1cccnc1)C(=O)N[C@@H](CO)C(=O)N[C@@H](Cc1ccc(O)cc1)C(=O)N[C@H](CCCNC(N)=O)C(=O)N[C@@H](CC(C)C)C(=O)N[C@@H](CCCNC(=N)N)C(=O)N1CCC[C@H]1C(=O)N[C@H](C)C(N)=O [cetrorelix, Ac-D-Nal(2)^1-D-Cpa^2-D-Pal(3)^3-Ser^4-Tyr^5-D-Cit^6-Leu^7-Arg^8-Pro^9-D-Ala^10-NH2, reference compound] (Ac-[d2Nal][dPhe(4-Cl)][d3Pal]SY[dCit]LRP[dA]-NH2) | 0.198 | 0.17
